Experimental data taken from US11685729B2, “C5a receptor modulators” (IDORSIA PHARMACEUTICALS LTD., priority 2018, dated 2023).
Where two headings read alike, the source gives them in different places.

Target: C5AR1 (Homo sapiens (Human), UniProt P21730)
Assay: In vitro assay: PathHunter beta-arrestin antagonist assay in CHO-K1 C5AR1 beta-arrestin cell line, stimulated with C5a agonist
[1] = read-out: C5aR IC50, CHO-K1 C5AR1 beta-arrestin cell line, 1-10 nM C5a agonist, geometric mean values

Sequence of C5AR1 (P21730 whole entry): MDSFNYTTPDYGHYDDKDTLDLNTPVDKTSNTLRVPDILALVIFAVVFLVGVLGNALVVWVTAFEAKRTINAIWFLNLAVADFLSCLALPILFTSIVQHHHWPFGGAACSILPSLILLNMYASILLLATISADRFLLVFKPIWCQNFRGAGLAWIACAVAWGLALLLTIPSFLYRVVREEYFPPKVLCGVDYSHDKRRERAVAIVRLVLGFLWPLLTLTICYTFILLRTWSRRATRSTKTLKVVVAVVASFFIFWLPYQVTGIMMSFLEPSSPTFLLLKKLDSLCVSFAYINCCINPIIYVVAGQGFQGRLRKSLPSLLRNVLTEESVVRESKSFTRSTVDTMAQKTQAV
Method: 5 μl Antagonist at 6-fold end concentration or DMSO control is added to assay medium and subsequently 5 μl 1-10 nM C5a agonist at 6 fold end concentration. Cells are centrifuged for 1 min at 1000 rpm and incubated for 1.5 hour in at 37° C. Plates are equilibrated at room temperature for several minutes before adding 12 μI/well Detection Reagent (PathHunter Detection Kit, DiscoverX, Cat #93-0001). Plates are centrifuged for 1 min at 1000 rpm and incubated for 45 minutes at RT before being measured on a Fluostar Optima, BMG Labtech. IC50 values are calculated from a serial dilution range of antagonist using inhouse software and given in nmol/l.
The calculated IC50 values may fluctuate depending on the daily cellular assay performance. […] Average IC50 values from several measurements are given as geometric mean values.

IC50 [1]	IC50	SMILES
13 nM	–	Cc1cccc(F)c1N1CCC(N2Cc3ccccc3N(Cc3ncccc3C(F)(F)F)C2=O)CC1 [Example 69, 3-[1-(2-Fluoro-6-methyl-phenyl)-piperidin-4-yl]-1-(3-trifluoromethyl-pyridin-2-ylmethyl)-3,4-dihydro-1H-quinazolin-2-one]
17 nM	–	Cc1cccc(F)c1N1CCC(N2Cc3ccccc3N(Cc3ccccc3OC(F)(F)F)C2=O)CC1 [Example 74, 3-[1-(2-Fluoro-6-methyl-phenyl)-piperidin-4-yl]-1-(2-trifluoromethoxy-benzyl)-3,4-dihydro-1H-quinazolin-2-one]
55 nM	–	Cc1cccc(F)c1N1CCC(N2Cc3ccccc3N(Cc3ccccc3Cl)C2=O)CC1 [Example 75, 1-(2-Chloro-benzyl)-3-[1-(2-fluoro-6-methyl-phenyl)-piperidin-4-yl]-3,4-dihydro-1H-quinazolin-2-one]
175 nM	–	Cc1cccc(F)c1N1CCCC(N2Cc3ccccc3N(Cc3ccccc3C(F)(F)F)C2=O)CC1 (stereo not shown) [Example 77, 3-[1-(2-Fluoro-6-methyl-phenyl)-azepan-4-yl]-1-(2-trifluoromethyl-benzyl)-3,4-dihydro-1H-quinazolin-2-one]
1320 nM	–	Cc1nc(C(F)(F)F)c(CN2C(=O)N(C3CCN(c4c(C)cccc4F)CC3)Cc3ccccc32)s1 [Example 83, 3-[1-(2-Fluoro-6-methyl-phenyl)-piperidin-4-yl]-1-(2-methyl-4-trifluoromethyl-thiazol-5-ylmethyl)-3,4-dihydro-1H-quinazolin-2-one]

Second part, the molecule before the results:

SMILES	IC50 [1]	IC50
Cc1cccc(F)c1N1CCC(N2Cc3ccccc3N(Cc3ccccc3OC3CC3)C2=O)CC1 [Example 68, 1-(2-Cyclopropoxy-benzyl)-3-[1-(2-fluoro-6-methyl-phenyl)-piperidin-4-yl]-3,4-dihydro-1H-quinazolin-2-one]	66 nM	–
Cc1nn(C)c(N2CCC(N3Cc4ccccc4N(Cc4ccccc4C(F)(F)F)C3=O)CC2)c1C#N [Example 72, 1,3-Dimethyl-5-{4-[2-oxo-1-(2-trifluoromethyl-benzyl)-1,4-dihydro-2H-quinazolin-3-yl]-piperidin-1-yl}-1H-pyrazole-4-carbonitrile]	2660 nM	–
Cc1nn(C)c(N2CCC(N3Cc4ccccc4N(Cc4ccccc4C(F)(F)F)C3=O)CC2)c1Cl [Example 73, 3-[1-(4-Chloro-2,5-dimethyl-2H-pyrazol-3-yl)-piperidin-4-yl]-1-(2-trifluoromethyl-benzyl)-3,4-dihydro-1H-quinazolin-2-one]	1340 nM	–
O=C1N(Cc2ccccc2C(F)(F)F)c2ccccc2CN1C1CCN(c2c(F)cccc2C(F)(F)F)CC1 [Example 76, 3-[1-(2-Fluoro-6-trifluoromethyl-phenyl)-piperidin-4-yl]-1-(2-trifluoromethyl-benzyl)-3,4-dihydro-1H-quinazolin-2-one]	50 nM	–
O=C1N(Cc2ccccc2C(F)(F)F)c2ccccc2CN1C1CCN(c2c(F)cccc2OC(F)(F)F)CC1 [Example 78, 3-[1-(2-Fluoro-6-trifluoromethoxy-phenyl)-piperidin-4-yl]-1-(2-trifluoromethyl-benzyl)-3,4-dihydro-1H-quinazolin-2-one]	80 nM	–
Cc1cccc(Cl)c1N1CCC(N2Cc3ccccc3N(Cc3ccccc3C(F)(F)F)C2=O)CC1 [Example 79, 3-[1-(2-Chloro-6-methyl-phenyl)-piperidin-4-yl]-1-(2-trifluoromethyl-benzyl)-3,4-dihydro-1H-quinazolin-2-one]	57 nM	–
Cc1cccc(F)c1N1CCC(N2Cc3ccccc3N(Cc3nnccc3OC(C)C)C2=O)CC1 [Example 80, 3-[1-(2-Fluoro-6-methyl-phenyl)-piperidin-4-yl]-1-(4-isopropoxy-pyridazin-3-ylmethyl)-3,4-dihydro-1H-quinazolin-2-one]	–	1790 nM
Cc1cccc(F)c1N1CC(N2Cc3ccccc3N(Cc3ccccc3C(F)(F)F)C2=O)C1 [Example 81, 3-[1-(2-Fluoro-6-methyl-phenyl)-azetidin-3-yl]-1-(2-trifluoromethyl-benzyl)-3,4-dihydro-1H-quinazolin-2-one]	1280 nM	–
